Data on 16 molecules can be found in US8586739B2, “Heterocyclic compounds and their uses” (Amgen Inc., priority 2007, dated 2013).

Molecules are shown by their SMILES.

The target of this test is T1, PI3Kδ (Homo sapiens, UniProt O00329).
T1 construct: Full length p110 subunits of PI3k α, β and δ, N-terminally labeled with polyHis tag; polyHis (N); made in house; host or cells: Sf9 insect cells (baculovirus)
T1 sequence (O00329 whole entry): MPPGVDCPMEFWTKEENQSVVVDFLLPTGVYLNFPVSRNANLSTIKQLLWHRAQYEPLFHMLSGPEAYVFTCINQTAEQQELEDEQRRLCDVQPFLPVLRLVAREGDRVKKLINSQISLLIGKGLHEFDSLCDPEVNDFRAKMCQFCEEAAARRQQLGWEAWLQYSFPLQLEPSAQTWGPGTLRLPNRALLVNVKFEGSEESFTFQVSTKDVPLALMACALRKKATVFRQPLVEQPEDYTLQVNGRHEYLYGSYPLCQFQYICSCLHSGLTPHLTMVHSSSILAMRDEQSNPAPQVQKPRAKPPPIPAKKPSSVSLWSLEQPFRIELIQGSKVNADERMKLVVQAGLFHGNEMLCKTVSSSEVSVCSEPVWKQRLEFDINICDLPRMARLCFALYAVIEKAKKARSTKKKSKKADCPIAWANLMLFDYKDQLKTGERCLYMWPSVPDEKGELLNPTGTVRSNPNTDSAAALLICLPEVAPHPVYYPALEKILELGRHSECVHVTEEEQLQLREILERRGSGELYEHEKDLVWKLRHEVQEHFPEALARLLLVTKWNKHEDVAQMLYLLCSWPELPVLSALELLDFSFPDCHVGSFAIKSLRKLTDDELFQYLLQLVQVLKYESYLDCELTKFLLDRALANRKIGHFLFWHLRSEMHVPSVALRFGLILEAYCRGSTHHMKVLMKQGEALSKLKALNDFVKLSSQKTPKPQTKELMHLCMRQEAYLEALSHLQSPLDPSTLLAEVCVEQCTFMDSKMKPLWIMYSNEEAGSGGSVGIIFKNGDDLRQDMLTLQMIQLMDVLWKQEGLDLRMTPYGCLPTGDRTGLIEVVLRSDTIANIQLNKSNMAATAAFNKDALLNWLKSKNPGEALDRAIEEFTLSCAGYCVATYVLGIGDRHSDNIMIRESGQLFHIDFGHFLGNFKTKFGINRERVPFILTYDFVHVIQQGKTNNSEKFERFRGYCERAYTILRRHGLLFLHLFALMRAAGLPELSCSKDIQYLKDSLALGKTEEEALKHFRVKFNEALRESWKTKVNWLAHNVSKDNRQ
T1 sequence (P27986 whole entry partner): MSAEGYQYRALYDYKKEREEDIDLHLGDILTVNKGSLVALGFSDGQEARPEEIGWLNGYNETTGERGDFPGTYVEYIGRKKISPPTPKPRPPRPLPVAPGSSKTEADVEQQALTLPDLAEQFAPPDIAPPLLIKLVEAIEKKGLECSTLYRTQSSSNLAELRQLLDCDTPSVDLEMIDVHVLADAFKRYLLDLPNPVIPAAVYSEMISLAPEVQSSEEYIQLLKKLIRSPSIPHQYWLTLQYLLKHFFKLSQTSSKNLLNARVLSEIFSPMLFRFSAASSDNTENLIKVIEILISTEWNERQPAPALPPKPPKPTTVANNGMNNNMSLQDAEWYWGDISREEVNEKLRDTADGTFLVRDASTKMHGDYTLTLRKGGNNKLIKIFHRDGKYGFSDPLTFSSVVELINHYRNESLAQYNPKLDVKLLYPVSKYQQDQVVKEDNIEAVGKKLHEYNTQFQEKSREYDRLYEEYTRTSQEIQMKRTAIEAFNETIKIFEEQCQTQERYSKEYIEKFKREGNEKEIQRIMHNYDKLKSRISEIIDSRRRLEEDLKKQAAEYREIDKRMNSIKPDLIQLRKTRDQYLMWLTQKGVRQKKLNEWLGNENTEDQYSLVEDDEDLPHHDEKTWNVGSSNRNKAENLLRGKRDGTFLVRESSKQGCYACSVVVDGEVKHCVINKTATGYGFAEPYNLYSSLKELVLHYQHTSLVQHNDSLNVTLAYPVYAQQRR
Briefly: In vitro enzyme assay of recombinant PI3K (residual ATP bioluminescence). It is filed as biochemical. The procedure:
Recombinant Expression of PI3Ks
Full length p110 subunits of PI3k α, β and δ, N-terminally labeled with polyHis tag, were coexpressed with p85 with Baculo virus expression vectors in sf9 insect cells. P110/p85 heterodimers were purified by sequential Ni-NTA, Q-HP, Superdex-100 chromatography. Purified α, β and δ isozymes were stored at −20° C. in 20 mM Tris, pH 8, 0.2M NaCl, 50% glycerol, 5 mM DTT, 2 mM Na cholate. Truncated PI3Kγ, residues 114-1102, N-terminally labeled with polyHis tag, was expessed with Baculo virus in Hi5 insect cells. The γ isozyme was purified by sequential Ni-NTA, Superdex-200, Q-HP chromatography. The γ isozyme was stored frozen at −80° C. in NaH2PO4, pH 8, 0.2M NaCl, 1% ethylene glycol, 2 mM β-mercaptoethanol.
Assays were performed in 25 μL with the above final concentrations of components in white polyproplyene plates (Costar 3355). Phospatidyl inositol phosphoacceptor, PtdIns(4,5)P2 P4508, was from Echelon Biosciences. The ATPase activity of the alpha and gamma isozymes was not greatly stimulated by PtdIns(4,5)P2 under these conditions and was therefore omitted from the assay of these isozymes. Test compounds were dissolved in dimethyl sulfoxide and diluted with three-fold serial dilutions. The compound in DMSO (1 μL) was added per test well, and the inhibition relative to reactions containing no compound, with and without enzyme was determined. After assay incubation at room temperature, the reaction was stopped and residual ATP determined by addition of an equal volume of a commercial ATP bioluminescence kit (Perkin Elmer EasyLite) according to the manufacturer's instructions, and detected using a AnalystGT luminometer.
A word on the IC50: it is the concentration needed to halve the response being measured. Turning to `Fc1ccc(OCc2ccccc2)c(-c2nc3c(Cl)cccc3cc2CNc2ncnc3[nH]cnc23)c1` [Example 39, N-((2-(2-(Benzyloxy)-5-fluorophenyl)-8-chloroquinolin-3-yl)methyl)-9H-purin-6-amine], the IC50 stood at 31 nM.
In the case of `Cc1cccc2cc(COc3ncnc4[nH]cnc34)c(-c3ccccc3-c3ccccc3)nc12` [Example 8, 3-((9H-Purin-6-yloxy)methyl)-2-(biphenyl)-8-methylquinoline], the half-maximal inhibitory concentration (IC50) came to 22 nM.
As to `Clc1cccc2cc(CNc3ncnc4[nH]ccc34)c(-c3ccccc3)nc12` [Example 32, N-((8-chloro-2-phenylquinolin-3-yl)methyl)-7H-pyrrolo[2,3-d]pyrimidin-4-amine], the concentration for half-maximal inhibition (IC50) is 270 nM.
`COc1ccccc1-c1nc2c(C)cccc2cc1COc1ncnc2[nH]cnc12` [Example 7, 3-((9H-Purin-6-yloxy)methyl)-2-(2-methoxyphenyl)-8-methylquinoline]: the half-inhibitory concentration (IC50) worked out at 38 nM.
Take `Fc1cc(F)cc(-c2nc3c(Cl)cccc3cc2CNc2ncnc3[nH]cnc23)c1` [Example 33, N-((8-Chloro-2-(3,5-difluorophenyl)quinolin-3-yl)methyl)-9H-purin-6-amine]: the IC50 worked out at 76 nM.
As to `CC[C@H](Nc1ncnc2[nH]cnc12)c1cc2cccc(Cl)c2nc1-c1cccc(F)c1` [Example 42, N-((S)-1-(8-Chloro-2-(3-fluorophenyl)quinolin-3-yl)propyl)-9H-purin-6-amine], the half-inhibitory concentration (IC50) amounted to 13 nM.
Consider `Cc1ccccc1-c1nc2c(C)cccc2cc1COc1ncnc2c1CC(=O)N2` [Example 20, 4-((8-Methyl-2-o-tolylquinolin-3-yl)methoxy)-5H-pyrrolo[2,3-d]pyrimidin-6(7H)-one], for which the IC50 amounted to 349 nM.
Turning to `Fc1ccc2cc(CNc3ncnc4[nH]cnc34)c(-c3ccccc3Cl)nc2c1` [Example 36, N-((2-(2-Chlorophenyl)-7-fluoroquinolin-3-yl)methyl)-9H-purin-6-amine], the IC50 came out at 225 nM.
As for `Cc1cccc2cc(C(C)Nc3ncnc4[nH]cnc34)c(-c3ccccc3Cl)nc12` (stereo not shown) [Example 6, N-(1-(2-(2-Chlorophenyl)-8-methylquinolin-3-yl)ethyl)-9H-purin-6-amine], the figure is 31 nM; as for `COc1cccc(F)c1-c1nc2c(C)cccc2cc1CNc1ncnc2[nH]cnc12` [Example 17, N-((2-(2-Fluoro-6-methoxyphenyl)-8-methylquinolin-3-yl)methyl)-9H-purin-6-amine], 651 nM; as for `C[C@H](Nc1ncnc2[nH]cnc12)c1cc2ccc(F)cc2nc1-c1cccs1` [Example 46, N-((S)-1-(7-Fluoro-2-(thiophen-2-yl)quinolin-3-yl)ethyl)-9H-purin-6-amine], 8 nM.
For the molecule `C[C@H](Nc1ncnc2[nH]cnc12)c1nc2cccc(Cl)c2cc1-c1cccc(F)c1` [Example 43, N-((S)-1-(5-Chloro-3-(3-fluorophenyl)quinolin-2-yl)ethyl)-9H-purin-6-amine], the IC50 came to 5 nM.
With `Cc1cccc2nc(-c3ccccc3Cl)c(CNc3ncnc4[nH]cnc34)nc12` [Example 18, N-((3-(2-Chlorophenyl)-8-methylquinoxalin-2-yl)methyl)-9H-purin-6-amine], the IC50 stood at 325 nM.
In the case of `Cc1ccccc1-c1nc2c(C)cccc2cc1CNc1nc(N)nc2[nH]cnc12` [Example 13, N6-((8-Methyl-2-o-tolylquinolin-3-yl)methyl)-9H-purine-2,6-diamine] it was 82 nM.
For the molecule `Clc1cccc2cc(CNc3ncnc4[nH]cnc34)c(Oc3ccccc3)nc12` [Example 30, N-((8-Chloro-2-phenoxyquinolin-3-yl)methyl)-9H-purin-6-amine], the IC50 turned out to be 125 nM.
`C[C@@H](Nc1ncnc2[nH]cnc12)c1cc2cccc(Cl)c2nc1-c1cccc(F)c1` [N-((R)-1-(8-Chloro-2-(3-fluorophenyl)quinolin-3-yl)ethyl)-9H-purin-6-amine]: the 50% inhibitory concentration (IC50) worked out at 424 nM.
